# Legend:
# Type in all cases: functional
# Mus musculus [1] = assay: Percentage glucose normalization relative to the ciglitazone effect at 50 mg/kg, which lower blood glucose levels to that of the lean littermates at the dose 5 mg/kg (in mice)
# Mus musculus [2] = assay: Percentage glucose normalization relative to the ciglitazone effect at 50 mg/kg, which lower blood glucose levels to that of the lean littermates at the dose 25 mg/kg (in mice)
# Mus musculus [3] = assay: Percentage glucose normalization relative to the ciglitazone effect at 50 mg/kg, which lower blood glucose levels to that of the lean littermates at the dose 0.2 mg/kg (in mice)
# Mus musculus [4] = assay: Percentage glucose normalization relative to the ciglitazone effect at 50 mg/kg, which lower blood glucose levels to that of the lean littermates at the dose 1 mg/kg (in mice)
# Mus musculus [5] = assay: Percentage glucose normalization relative to the ciglitazone effect at 50 mg/kg, which lower blood glucose levels to that of the lean littermates at the dose 0.1 mg/kg (in mice)
# Mus musculus [6] = assay: Percentage glucose normalization relative to the ciglitazone effect at 50 mg/kg, which lower blood glucose levels to that of the lean littermates at the dose 10 mg/kg (in mice)
# Mus musculus [7] = assay: Percentage glucose normalization relative to the ciglitazone effect at 50 mg/kg, which lower blood glucose levels to that of the lean littermates at the dose 0.5 mg/kg (in mice)
# Mus musculus [8] = assay: Percentage glucose normalization relative to the ciglitazone effect at 50 mg/kg, which lower blood glucose levels to that of the lean littermates at the dose 0.025 mg/kg (in mice)
# Mus musculus [9] = assay: Percentage glucose normalization relative to the ciglitazone effect at 50 mg/kg, which lower blood glucose levels to that of the lean littermates at the dose 0.05 mg/kg (in mice)
SMILES,Glucose normalisation (Mus musculus [3]) [%],Glucose normalisation (Mus musculus [4]) [%],Glucose normalisation (Mus musculus [7]) [%],further results
Cc1oc(-c2ccccc2)nc1COc1ccc(CC2OC(=O)NC2=O)cc1 (stereo unspecified),–,–,–,Glucose normalisation (Mus musculus [1]): 60%
O=C1NC(=O)C(Cc2ccc(Oc3ccc4oc(-c5ccccc5)nc4c3)cc2)O1 (stereo unspecified),–,–,–,Glucose normalisation (Mus musculus [2]): 0%
Cc1oc(-c2ccc3ccccc3c2)nc1Cc1cc2cc(CC3OC(=O)NC3=O)ccc2o1 (stereo unspecified),70,75,–,Glucose normalisation (Mus musculus [5]): 76%
O=C1NC(=O)C(Cc2ccc(OCCc3oc(-c4ccccc4)nc3Cc3ccccc3)cc2)O1 (stereo unspecified),–,–,–,Glucose normalisation (Mus musculus [6]): 40%
Cc1oc(-c2cc(C(F)(F)F)cc(C(F)(F)F)c2)nc1CCOc1ccc(CC2OC(=O)NC2=O)cc1 (stereo unspecified),14,–,95,–
Cc1oc(C2CCCCC2)nc1Cc1cc2cc(CC3OC(=O)NC3=O)ccc2o1 (stereo unspecified),91,–,–,Glucose normalisation (Mus musculus [5]): 64%
Cc1cccc(-c2nc(Cc3cc4cc(CC5OC(=O)NC5=O)ccc4o3)c(C)o2)c1 (stereo unspecified),–,–,100,Glucose normalisation (Mus musculus [5]): 90%
Cc1oc(-c2ccc3ccccc3c2)nc1CCOc1ccc(CC2OC(=O)NC2=O)cc1 (stereo unspecified),46,98,100,–
Cc1sc(-c2ccc3ccccc3c2)nc1CCOc1ccc(CC2OC(=O)NC2=O)cc1 (stereo unspecified),–,–,0,–
Cc1ccc(-c2nc(Cc3cc4cc(CC5OC(=O)NC5=O)ccc4o3)c(C)o2)cc1 (stereo unspecified),100,–,–,Glucose normalisation (Mus musculus [5]): 40%
COc1ccc(-c2nc(CCOc3ccc(CC4OC(=O)NC4=O)cc3)c(C)o2)cc1 (stereo unspecified),–,80,53,–
Cc1oc(-c2ccccc2)nc1Cc1cc2cc(CC3OC(=O)NC3=O)ccc2o1 (stereo unspecified),100,–,–,Glucose normalisation (Mus musculus [8]): 65%; Glucose normalisation (Mus musculus [9]): 77%; Glucose normalisation (Mus musculus [1]): 100%; Glucose normalisation (Mus musculus [5]): 92%
Cc1oc(-c2ccco2)nc1CCOc1ccc(CC2OC(=O)NC2=O)cc1 (stereo unspecified),–,14,–,Glucose normalisation (Mus musculus [1]): 24%
Cc1oc(-c2ccccc2)nc1CCOc1ccc(CC2OC(=O)NC2=O)cc1 (stereo unspecified),–,100,28,–
Cc1oc(-c2ccccc2)nc1CCOc1ccc(C2OC(=O)NC2=O)cc1 (stereo unspecified),–,0,–,–
Cc1oc(-c2ccccc2)nc1CCC(=O)c1ccc(CC2OC(=O)NC2=O)cc1 (stereo unspecified),–,13,–,Glucose normalisation (Mus musculus [1]): 75%
Cc1sc(-c2ccccc2)nc1Cc1cc2cc(CC3OC(=O)NC3=O)ccc2o1 (stereo unspecified),–,–,0,–
Cc1nc(-c2ccc3ccccc3c2)oc1CCOc1ccc(CC2OC(=O)NC2=O)cc1 (stereo unspecified),–,0,–,Glucose normalisation (Mus musculus [1]): 10%
Cc1oc(C2CCCCC2)nc1CCOc1ccc(CC2OC(=O)NC2=O)cc1 (stereo unspecified),–,61,–,–
